Results published in the supplement of paper PMC10307832.

Legend:
Assay in all cases: relative viability (nuclei count vs DMSO), 5 days (fraction); higher = more cells survive
TPCA-1 + Navitoclax = compound: C1=CC(=CC=C1C2=CC(=C(S2)NC(=O)N)C(=O)N)F [TPCA-1] + CC1(C)CCC(c2ccc(Cl)cc2)=C(CN2CCN(c3ccc(C(=O)NS(=O)(=O)c4ccc(N[C@H](CCN5CCOCC5)CSc5ccccc5)c(S(=O)(=O)C(F)(F)F)c4)cc3)CC2)C1 [Navitoclax] (partner 0.5 µM)
How it was run: (§1)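 Values are medians from duplicate plates. Each reflects relative viability, defined as the nuclei count of treated wells over that of vehicle wells. Lung cancer cell lines in 1536-well plates were pin-tool dosed one day after seeding with one drug alone or with a fixed anchor-drug dose plus five library-drug doses (not always all listed) in √10 steps, then fixed, stained and imaged at 4× after 5 days.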

TPCA-1 + Pemetrexed = compound: C1=CC(=CC=C1C2=CC(=C(S2)NC(=O)N)C(=O)N)F [TPCA-1] + Nc1nc2[nH]cc(CCc3ccc(C(=O)N[C@@H](CCC(=O)O)C(=O)O)cc3)c2c(=O)[nH]1 [Pemetrexed] (partner 0.2 µM)
How it was run: as §1

[1] = compound: C1/C(=C\C2=CC=CS2)/C(=O)/C(=C/C3=CC=CS3)/C1 + Cc1nc(Nc2ncc(C(=O)Nc3c(C)cccc3Cl)s2)cc(N2CCN(CCO)CC2)n1 [Dasatinib] (partner 0.075 µM)
How it was run: as §1

TPCA-1 + Palbociclib = compound: C1=CC(=CC=C1C2=CC(=C(S2)NC(=O)N)C(=O)N)F [TPCA-1] + CC(=O)c1c(C)c2cnc(Nc3ccc(N4CCNCC4)cn3)nc2n(C2CCCC2)c1=O [Palbociclib] (partner 0.5 µM)
How it was run: as §1

Cell Line	relative viability (TPCA-1 + Navitoclax; first compound 0.04 µM)	relative viability (TPCA-1 + Navitoclax; first compound 0.1265 µM)	relative viability (TPCA-1 + Navitoclax; first compound 0.4 µM)	relative viability (TPCA-1 + Navitoclax; first compound 1.265 µM)	relative viability (TPCA-1 + Navitoclax; first compound 4 µM)	relative viability (TPCA-1 + Pemetrexed; first compound 0.04 µM)	relative viability (TPCA-1 + Pemetrexed; first compound 0.1265 µM)	relative viability (TPCA-1 + Pemetrexed; first compound 0.4 µM)	relative viability (TPCA-1 + Pemetrexed; first compound 1.265 µM)	relative viability (TPCA-1 + Pemetrexed; first compound 4 µM)	relative viability ([1]; first compound 0.2 µM)	relative viability ([1]; first compound 0.6325 µM)	relative viability ([1]; first compound 2 µM)	relative viability ([1]; first compound 6.325 µM)	relative viability ([1]; first compound 20 µM)	relative viability (TPCA-1 + Palbociclib; first compound 0.04 µM)	relative viability (TPCA-1 + Palbociclib; first compound 0.1265 µM)	relative viability (TPCA-1 + Palbociclib; first compound 0.4 µM)	relative viability (TPCA-1 + Palbociclib; first compound 1.265 µM)	relative viability (TPCA-1 + Palbociclib; first compound 4 µM)
NCI-H1734	0.893	0.759	0.871	0.779	0.697	0.41	0.413	0.41	0.48	0.362	0.458	0.49	0.498	0.458	0.497	0.352	0.313	0.388	0.363	0.307
NCI-H1755	0.998	0.95	0.949	0.847	0.696	0.448	0.437	0.459	0.379	0.444	0.393	0.462	0.445	0.366	0.375	0.457	0.454	0.459	0.431	0.399
NCI-H1792	0.714	0.622	0.677	0.621	0.279	1.24	0.721	0.764	0.672	0.222	0.774	0.613	0.968	0.758	0.752	0.707	0.562	0.593	0.574	0.496
NCI-H1793	0.425	0.354	0.413	0.342	0.319	0.97	0.709	0.921	0.963	0.249	0.381	0.441	0.472	0.341	0.37	0.358	0.301	0.303	0.355	0.213
NCI-H1915	0.788	0.733	0.783	0.771	0.694	0.532	0.507	0.509	0.46	0.371	0.337	0.335	0.328	0.202	0.321	0.568	0.475	0.515	0.516	0.465
NCI-H1944	1.07	0.949	1.06	0.921	0.823	0.631	0.466	0.705	0.589	0.487	0.225	0.202	0.217	0.225	0.19	0.354	0.336	0.293	0.319	0.225
NCI-H1975	1.16	1.02	1.1	0.904	0.782	0.305	0.297	0.3	0.298	0.286	0.445	0.328	–	0.206	0.387	0.593	0.532	0.613	0.552	0.142
NCI-H1993	1.01	–	0.794	0.756	0.809	0.613	0.547	0.564	0.628	0.503	0.545	0.48	0.616	0.457	0.649	0.726	0.531	0.645	0.717	0.534
NCI-H2009	1.2	1.18	1.08	1.19	1.12	1.07	0.979	1	1.11	0.99	0.282	0.296	0.306	0.269	0.311	0.254	0.204	0.25	0.174	0.19
NCI-H2023	1.14	0.98	1.04	0.938	0.912	0.2	0.282	0.254	0.222	0.202	0.597	0.581	0.673	0.513	0.502	0.366	0.394	0.444	0.37	0.165
NCI-H2085	1.14	1.1	1.2	1.12	1.13	–	0.864	0.918	0.872	0.634	0.233	0.258	0.221	0.237	0.236	–	0.47	0.489	0.443	0.46
NCI-H2087	1.02	0.818	0.936	0.791	0.356	0.615	0.472	0.646	0.651	0.539	0.942	0.879	1.03	0.655	0.878	0.253	0.241	0.218	0.237	0.155
NCI-H2126	0.866	0.791	0.899	0.812	0.767	0.636	0.607	0.679	0.508	0.524	0.624	0.585	0.597	0.532	0.577	0.388	0.382	0.364	0.355	0.3
NCI-H2170	0.666	0.52	0.497	0.559	0.264	0.273	0.34	0.288	0.28	0.265	0.47	0.632	0.639	0.622	0.511	0.413	0.404	0.417	0.391	0.275
NCI-H2228	0.758	0.68	1.18	0.656	0.595	0.364	0.322	0.319	0.316	0.306	0.638	0.479	0.535	0.408	0.531	0.865	0.593	0.801	0.543	0.308
NCI-H2347	0.788	0.855	0.726	0.568	0.762	0.385	0.419	0.417	0.385	0.424	0.323	0.281	0.311	–	0.352	0.457	0.462	0.427	0.424	0.461
NCI-H2405	0.971	0.691	0.964	–	0.714	1.09	1.03	1.02	1.02	0.914	0.223	0.212	0.224	0.211	0.221	0.565	0.507	0.525	0.446	0.478
NCI-H3122	0.995	1.01	1.04	1.02	1.01	0.203	0.23	0.222	0.191	0.19	0.843	0.836	1.05	0.827	0.82	0.189	0.166	0.185	0.22	0.181
PC-3 [JPC-3]	0.839	0.807	0.802	0.677	0.719	1.17	1.03	1.22	1.09	0.535	1.03	0.981	1.04	0.856	0.948	0.516	0.538	0.514	0.537	0.285
PC-14	1.03	0.876	1.01	1.09	0.913	0.136	0.128	0.133	0.134	0.138	0.32	0.264	0.285	0.241	0.222	0.502	0.57	0.557	0.518	0.4
RERF-LC-KJ	0.967	0.883	1.06	0.866	0.766	0.473	0.474	0.469	0.524	0.488	0.858	0.798	0.776	0.682	0.656	1.12	1.04	1.04	1.03	0.892
SK-LU-1	0.962	0.785	0.789	0.7	0.566	1.03	0.94	0.986	0.831	0.73	0.182	0.203	0.189	0.164	0.224	0.363	0.367	0.368	0.347	0.235
SK-MES-1	1.3	1.07	1.22	1.16	0.797	0.925	0.808	0.91	0.769	0.631	0.337	0.421	0.366	0.391	0.425	0.346	0.333	0.325	0.319	0.327
SW 1573	1.14	0.866	0.916	0.962	0.948	0.792	0.823	0.844	0.924	0.715	0.564	0.516	0.475	0.429	0.449	0.429	0.396	0.396	0.395	0.407
